Measured values published in article PMC4684755 (ACS chemical biology, 2015).

Experiments:
[1] = target: PKS18 (Mycobacterium tuberculosis, UniProt P9WPF1)
[2] = target: ORAS (Neurospora crassa, UniProt Q7S6N4); experiment: type III PKS assay, LC-HRMS; type: biochemical; details: pH 8.0, room temperature, overnight
[3] = target: T1, CsyA (Aspergillus oryzae, UniProt Q53U85); experiment: type III PKS assay, LC-HRMS; type: biochemical; details: malonyl-CoA 2 mM, pH 8.0, room temperature, overnight
T1 sequence (Q53U85 1-402): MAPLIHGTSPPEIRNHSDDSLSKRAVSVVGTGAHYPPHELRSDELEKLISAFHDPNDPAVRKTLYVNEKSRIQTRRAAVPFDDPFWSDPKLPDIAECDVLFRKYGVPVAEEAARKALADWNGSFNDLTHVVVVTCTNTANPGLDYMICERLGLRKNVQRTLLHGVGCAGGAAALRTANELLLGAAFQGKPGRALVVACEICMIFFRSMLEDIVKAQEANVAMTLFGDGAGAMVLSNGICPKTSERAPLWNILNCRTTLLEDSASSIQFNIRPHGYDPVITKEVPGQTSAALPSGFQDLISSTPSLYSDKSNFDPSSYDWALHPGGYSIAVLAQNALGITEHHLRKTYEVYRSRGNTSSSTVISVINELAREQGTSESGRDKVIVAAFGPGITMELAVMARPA

Chain of PKS18 (P9WPF1 whole entry): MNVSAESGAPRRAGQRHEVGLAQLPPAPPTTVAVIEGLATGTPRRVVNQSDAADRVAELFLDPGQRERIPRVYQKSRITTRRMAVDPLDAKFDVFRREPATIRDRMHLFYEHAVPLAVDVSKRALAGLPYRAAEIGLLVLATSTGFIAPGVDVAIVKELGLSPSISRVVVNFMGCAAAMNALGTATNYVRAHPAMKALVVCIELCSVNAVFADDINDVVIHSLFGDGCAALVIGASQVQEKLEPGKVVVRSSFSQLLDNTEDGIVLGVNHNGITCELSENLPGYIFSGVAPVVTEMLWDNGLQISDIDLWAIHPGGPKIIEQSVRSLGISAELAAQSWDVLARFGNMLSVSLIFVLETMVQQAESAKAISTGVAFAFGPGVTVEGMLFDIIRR

## CCCCCCCCCCCC(=O)SCCNC(=O)CCNC(=O)[C@H](O)C(C)(C)COP(=O)(O)OP(=O)(O)OC[C@H]1O[C@@H](n2cnc3c(N)ncnc32)[C@H](O)[C@@H]1OP(=O)(O)O [lauryl-CoA]
[1]
  type III PKS assay, LC-HRMS: enzymatic reactions containing lauryl-CoA, malonyl-CoA and the type III PKSs as positive controls
[2]; malonyl-CoA 2 mM
  type III PKS assay, LC-HRMS: enzymatic reactions containing lauryl-CoA, malonyl-CoA and the type III PKSs as positive controls
[3]
  type III PKS assay, LC-HRMS: enzymatic reactions containing lauryl-CoA, malonyl-CoA and the type III PKSs as positive controls

## CC(C)(COP(=O)(O)OP(=O)(O)OC[C@H]1O[C@@H](n2cnc3c(N)ncnc32)[C@H](O)[C@@H]1OP(=O)(O)O)[C@@H](O)C(=O)NCCC(=O)NCCSC(=O)CC(=O)O [malonyl-CoA]
[1]
  type III PKS assay, LC-HRMS: enzymatic reactions containing lauryl-CoA, malonyl-CoA and the type III PKSs as positive controls
[2]; lauryl-CoA 1 mM
  type III PKS assay, LC-HRMS: enzymatic reactions containing lauryl-CoA, malonyl-CoA and the type III PKSs as positive controls
